Values after ≈ are worked out from the molar mass of the structure shown.
System: Mycobacterium tuberculosis
Test: Antimycobacterial activity against Mycobacterium tuberculosis InhA S94A assessed as reduction in bacterial growth
Type: functional

`Oc1cc2ccc1Oc1ccc(cc1)CCc1ccc(c(O)c1)Oc1ccc(cc1)CC2` was tested, and the MIC was 40 µg/mL (≈ 94.2 µM).

Work on `CC/C(C)=C1\OC(=O)[C@H](C)[C@H](O)[C@H](Cc2cccnc2)NC(=O)[C@@H](NC(=O)c2ncccc2O)[C@@H](C)OC1=O` [PYRIDOMYCIN] yielded an MIC of 0.3 µg/mL (≈ 0.555 µM).

Source: ChEMBL document CHEMBL5230110, “FabI (enoyl acyl carrier protein reductase) - A potential broad spectrum therapeutic target and its inhibitors” (Eur J Med Chem, 2020)
